# Data taken from paper PMC3914206.
# Experiments:
# Assay type in all cases: binding
# Parameters in all cases: KINOMEscan: ABL1(F317L)-phosphorylated / KINOMEscan: ABL1(H396P)-nonphosphorylated / KINOMEscan: ABL1(H396P)-phosphorylated / KINOMEscan: ABL1(M351T)-phosphorylated / KINOMEscan: ABL1(T315I)-phosphorylated / KINOMEscan: ABL1-nonphosphorylated / KINOMEscan: ABL1-phosphorylated / KINOMEscan: ACVR2A / KINOMEscan: ACVR2B / KINOMEscan: ADCK3 / KINOMEscan: ADCK4 / KINOMEscan: AKT1 / KINOMEscan: AKT3 / KINOMEscan: ALK / KINOMEscan: ARK5 / KINOMEscan: AURKA / KINOMEscan: AURKC / KINOMEscan: BIKE / KINOMEscan: BMPR1A / KINOMEscan: BMPR1B / KINOMEscan: BMX / KINOMEscan: BRK / KINOMEscan: BRSK1 / KINOMEscan: BRSK2 / KINOMEscan: CAMK1 / KINOMEscan: CAMK1D / KINOMEscan: CAMK1G / KINOMEscan: CAMK2A / KINOMEscan: CAMK2B / KINOMEscan: AAK1 / KINOMEscan: CAMK2D / KINOMEscan: CAMK2G / KINOMEscan: ABL1(F317I)-nonphosphorylated / KINOMEscan: ABL1(F317I)-phosphorylated / KINOMEscan: ABL1(F317L)-nonphosphorylated: unit: % Ctrl
# panel of 442 kinases [1] = target: T1, panel of 442 kinases (Homo sapiens, UniProt P23443); details: kinase S6K1; compound concentration 10 µM
# T1 construct: purchased KINOMEscan
# Text: (§1) We assessed the selectivity of members of this scaffold using the KINOMEscan methodology across a near comprehensive panel of 442 kinases [[18,27]].
# panel of 442 kinases [2] = target: T2, panel of 442 kinases (Homo sapiens, UniProt P36894); details: Compound Concentration 10 µM
# T2 construct: purchased KINOMEscan
# Text: as §1
# panel of 442 kinases [3] = target: T3, panel of 442 kinases (Homo sapiens, UniProt Q02750); details: Compound Concentration 10 µM
# T3 construct: purchased KINOMEscan
# Text: as §1
# T2 sequence (P36894 24-532): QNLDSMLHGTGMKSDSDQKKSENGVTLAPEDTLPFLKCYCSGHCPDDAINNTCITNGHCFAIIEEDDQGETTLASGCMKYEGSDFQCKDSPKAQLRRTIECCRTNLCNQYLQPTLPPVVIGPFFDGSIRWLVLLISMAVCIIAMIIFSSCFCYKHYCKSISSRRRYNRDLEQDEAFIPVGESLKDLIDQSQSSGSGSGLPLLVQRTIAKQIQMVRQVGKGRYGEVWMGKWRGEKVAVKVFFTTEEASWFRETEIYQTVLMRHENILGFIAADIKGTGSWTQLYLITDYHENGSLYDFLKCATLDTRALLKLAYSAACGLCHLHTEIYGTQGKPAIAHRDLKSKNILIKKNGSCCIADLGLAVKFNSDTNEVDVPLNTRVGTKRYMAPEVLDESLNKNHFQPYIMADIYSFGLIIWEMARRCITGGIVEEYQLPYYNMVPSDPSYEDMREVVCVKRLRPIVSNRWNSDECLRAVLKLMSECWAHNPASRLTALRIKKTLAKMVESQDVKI
# T3 sequence (Q02750 whole entry): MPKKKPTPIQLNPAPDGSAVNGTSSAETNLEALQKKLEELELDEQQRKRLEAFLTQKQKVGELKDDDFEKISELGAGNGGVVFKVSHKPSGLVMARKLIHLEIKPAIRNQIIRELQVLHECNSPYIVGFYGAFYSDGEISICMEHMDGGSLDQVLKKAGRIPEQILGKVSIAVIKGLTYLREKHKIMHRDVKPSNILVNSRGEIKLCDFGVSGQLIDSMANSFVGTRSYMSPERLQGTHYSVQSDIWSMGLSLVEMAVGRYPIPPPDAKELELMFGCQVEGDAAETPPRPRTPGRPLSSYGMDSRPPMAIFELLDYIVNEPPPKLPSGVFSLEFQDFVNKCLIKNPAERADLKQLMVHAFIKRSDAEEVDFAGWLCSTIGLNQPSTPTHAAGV
# T1 sequence (P23443 whole entry): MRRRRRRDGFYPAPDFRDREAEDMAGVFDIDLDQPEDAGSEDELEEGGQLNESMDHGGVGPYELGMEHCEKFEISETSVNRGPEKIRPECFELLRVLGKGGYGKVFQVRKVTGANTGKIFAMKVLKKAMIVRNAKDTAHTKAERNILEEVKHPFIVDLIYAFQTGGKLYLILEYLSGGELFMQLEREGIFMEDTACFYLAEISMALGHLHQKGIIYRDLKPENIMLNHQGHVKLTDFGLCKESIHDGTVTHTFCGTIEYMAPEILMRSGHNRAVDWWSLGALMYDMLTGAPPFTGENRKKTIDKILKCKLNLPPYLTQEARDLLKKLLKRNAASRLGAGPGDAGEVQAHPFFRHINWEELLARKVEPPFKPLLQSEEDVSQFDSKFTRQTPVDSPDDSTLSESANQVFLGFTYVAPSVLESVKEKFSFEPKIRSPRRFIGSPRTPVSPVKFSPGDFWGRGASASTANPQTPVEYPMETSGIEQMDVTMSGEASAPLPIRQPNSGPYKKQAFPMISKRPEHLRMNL
compound,measurement,setting,value
"COc1cc(C(=O)N2CCC(N3CCN(C)CC3)CC2)ccc1Nc1ncc2c(n1)N(C1CCCC1)c1ccccc1C(=O)N2C [Compound 25, 11-cyclopentyl-2-((2-methoxy-4-(4-(4-methylpiperazin-1-yl)piperidine-1-carbonyl)phenyl)amino)-5-methyl-5H-benzo[e]pyrimido[5,4-b][1,4]diazepin-6(11H)-one]","% Ctrl, S6K1",panel of 442 kinases [1],100 % Ctrl
same,KINOMEscan: BMPR1A,panel of 442 kinases [2],96
same,KINOMEscan: MEK1,panel of 442 kinases [3],68
COc1cc(C(=O)N2CCC(N3CCN(C)CC3)CC2)ccc1Nc1ncc2c(n1)N1CCc3cccc(c31)C(=O)N2C [Compound 24],"% Ctrl, S6K1",panel of 442 kinases [1],100 % Ctrl
same,KINOMEscan: BMPR1A,panel of 442 kinases [2],67
same,KINOMEscan: MEK1,panel of 442 kinases [3],75
COc1cc(C(=O)N2CCC(N3CCN(C)CC3)CC2)ccc1Nc1ncc2c(n1)N(C)c1ccccc1C(=O)N2C [15 (LRRK2-IN-1)],"% Ctrl, S6K1",panel of 442 kinases [1],100 % Ctrl
same,KINOMEscan: BMPR1A,panel of 442 kinases [2],100
same,KINOMEscan: MEK1,panel of 442 kinases [3],100
CCOc1cc(C(=O)N2CCC(N3CCN(C)CC3)CC2)ccc1Nc1ncc2c(n1)N(C1CCCC1)c1ccccc1C(=O)N2C [Compound 26],"% Ctrl, S6K1",panel of 442 kinases [1],100 % Ctrl
same,KINOMEscan: BMPR1A,panel of 442 kinases [2],100
same,KINOMEscan: MEK1,panel of 442 kinases [3],100
